Tests used:
Assay in all cases: Ba/F3 cell viability, Cell Titer Glo
EGFR G724S = EGFR G724S (Homo sapiens, UniProt P00533, G724S); details: read-out: IC50 Values; Ba/F3 cells expressing EGFR G724S, 72 hours
Protocol: (§1) Cell viability was determined by the Cell Titer Glo assay.
(§2) Briefly, stable Ba/F3 cell lines were generated by retroviral transduction of Ba/F3 cell line for 12 hours. […] Three days after transduction, 2 μg/ml puromycin (Invitrogen) was added to the RPMI media. Cell lines were then grown in the absence of IL-3 for two weeks and cell viability was assessed every three days using the Cell Titer Glo assay (Progema).
(§3) Briefly, 2000-3000 cells per well were plated in 384-well plates (Greiner Bio-One) in technical triplicate. Cells were treated with seven different concentrations of tyrosine kinase inhibitors or vehicle alone at a final volume of 40 μL per well. After 3 days, 11 μL of Cell Titer Glo was added to each well. Plates were shaken for 15 minutes, and bioluminescence was determined using a FLUOstar OPTIMA multi-mode micro-plate reader (BMG LABTECH). Bioluminescence values were normalized to DMSO treated cells, and normalized values were plotted in GraphPad Prism using non-linear regression fit to normalized data with a variable slope.

EGFR L833V = EGFR L833V (Homo sapiens, UniProt P00533, L833V); details: read-out: IC50 Values; Ba/F3 cells expressing EGFR L833V, 72 hours
Protocol: as §1, §2, §3

EGFR S784F = EGFR S784F (Homo sapiens, UniProt P00533, S784F); details: read-out: IC50 Values; Ba/F3 cells expressing EGFR S784F, 72 hours
Protocol: as §1, §2, §3

EGFR L858R T790M L718V = EGFR L858R T790M L718V (Homo sapiens, UniProt P00533, L718V/L858R/T790M); details: read-out: IC50 Values; Ba/F3 cells expressing EGFR L858R T790M L718V, 72 hours
Protocol: as §1, §2, §3

EGFR V769L = EGFR V769L (Homo sapiens, UniProt P00533, V769L); details: read-out: IC50 Values; Ba/F3 cells expressing EGFR V769L, 72 hours
Chain of EGFR V769L (P00533 25-1210 V769L): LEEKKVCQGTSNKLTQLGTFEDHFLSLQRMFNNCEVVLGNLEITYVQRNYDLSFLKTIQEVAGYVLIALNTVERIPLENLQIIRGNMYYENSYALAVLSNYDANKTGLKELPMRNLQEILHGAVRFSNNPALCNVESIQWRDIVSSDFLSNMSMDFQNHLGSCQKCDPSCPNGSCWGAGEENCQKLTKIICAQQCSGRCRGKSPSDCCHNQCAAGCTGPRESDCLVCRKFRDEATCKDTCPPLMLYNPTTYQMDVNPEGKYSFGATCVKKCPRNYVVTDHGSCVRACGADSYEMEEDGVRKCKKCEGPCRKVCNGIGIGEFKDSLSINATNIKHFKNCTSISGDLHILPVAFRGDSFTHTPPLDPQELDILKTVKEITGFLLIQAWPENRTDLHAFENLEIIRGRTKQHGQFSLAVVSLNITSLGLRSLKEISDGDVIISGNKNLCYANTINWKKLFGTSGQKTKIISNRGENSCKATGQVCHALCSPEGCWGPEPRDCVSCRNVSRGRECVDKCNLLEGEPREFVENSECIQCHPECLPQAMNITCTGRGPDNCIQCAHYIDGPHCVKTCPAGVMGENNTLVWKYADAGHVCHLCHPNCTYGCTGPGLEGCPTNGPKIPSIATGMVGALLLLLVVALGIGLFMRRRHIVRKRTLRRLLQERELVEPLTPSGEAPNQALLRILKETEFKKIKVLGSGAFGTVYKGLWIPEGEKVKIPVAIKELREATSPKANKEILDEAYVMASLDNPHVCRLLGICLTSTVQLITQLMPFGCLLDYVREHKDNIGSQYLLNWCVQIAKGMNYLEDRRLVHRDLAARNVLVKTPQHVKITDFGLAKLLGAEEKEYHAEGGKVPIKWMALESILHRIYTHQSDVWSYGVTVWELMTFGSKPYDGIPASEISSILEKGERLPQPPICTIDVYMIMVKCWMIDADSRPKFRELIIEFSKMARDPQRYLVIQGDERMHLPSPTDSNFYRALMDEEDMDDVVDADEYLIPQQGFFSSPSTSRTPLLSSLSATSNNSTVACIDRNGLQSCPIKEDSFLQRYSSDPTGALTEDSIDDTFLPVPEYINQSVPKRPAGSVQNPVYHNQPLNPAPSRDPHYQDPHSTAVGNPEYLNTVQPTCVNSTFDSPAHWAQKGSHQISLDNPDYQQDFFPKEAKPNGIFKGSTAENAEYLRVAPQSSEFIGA
Protocol: as §1, §2, §3

EGFR E709K = EGFR E709K (Homo sapiens, UniProt P00533, E709K); details: read-out: IC50 Values; Ba/F3 cells expressing EGFR E709K, 72 hours
Protocol: as §1, §2, §3

[1] = biological target: EGFR L747 K754del insATSPE (Homo sapiens, UniProt P00533, DEL747-749/K754E); details: read-out: IC50 Values; Ba/F3 cells expressing EGFR L747 K754del insATSPE, 72 hours
Protocol: as §1, §2, §3

EGFR L861R = EGFR L861R (Homo sapiens, UniProt P00533, L861R); details: read-out: IC50 Values; Ba/F3 cells expressing EGFR L861R, 72 hours
Protocol: as §1, §2, §3

EGFR T790M = EGFR T790M (Homo sapiens, UniProt P00533, T790M); details: read-out: IC50 Values; Ba/F3 cells expressing EGFR T790M, 72 hours
Protocol: as §1, §2, §3

EGFR Ex19del/T790M/G724S = EGFR Ex19del/T790M/G724S (Homo sapiens, UniProt P00533, DEL746-750/G724S/T790M); details: read-out: IC50 Values; Ba/F3 cells expressing EGFR Ex19del/T790M/G724S, 72 hours
Chain of EGFR Ex19del/T790M/G724S (P00533 with tags, fused parts or gaps G724S/DEL746-750/T790M): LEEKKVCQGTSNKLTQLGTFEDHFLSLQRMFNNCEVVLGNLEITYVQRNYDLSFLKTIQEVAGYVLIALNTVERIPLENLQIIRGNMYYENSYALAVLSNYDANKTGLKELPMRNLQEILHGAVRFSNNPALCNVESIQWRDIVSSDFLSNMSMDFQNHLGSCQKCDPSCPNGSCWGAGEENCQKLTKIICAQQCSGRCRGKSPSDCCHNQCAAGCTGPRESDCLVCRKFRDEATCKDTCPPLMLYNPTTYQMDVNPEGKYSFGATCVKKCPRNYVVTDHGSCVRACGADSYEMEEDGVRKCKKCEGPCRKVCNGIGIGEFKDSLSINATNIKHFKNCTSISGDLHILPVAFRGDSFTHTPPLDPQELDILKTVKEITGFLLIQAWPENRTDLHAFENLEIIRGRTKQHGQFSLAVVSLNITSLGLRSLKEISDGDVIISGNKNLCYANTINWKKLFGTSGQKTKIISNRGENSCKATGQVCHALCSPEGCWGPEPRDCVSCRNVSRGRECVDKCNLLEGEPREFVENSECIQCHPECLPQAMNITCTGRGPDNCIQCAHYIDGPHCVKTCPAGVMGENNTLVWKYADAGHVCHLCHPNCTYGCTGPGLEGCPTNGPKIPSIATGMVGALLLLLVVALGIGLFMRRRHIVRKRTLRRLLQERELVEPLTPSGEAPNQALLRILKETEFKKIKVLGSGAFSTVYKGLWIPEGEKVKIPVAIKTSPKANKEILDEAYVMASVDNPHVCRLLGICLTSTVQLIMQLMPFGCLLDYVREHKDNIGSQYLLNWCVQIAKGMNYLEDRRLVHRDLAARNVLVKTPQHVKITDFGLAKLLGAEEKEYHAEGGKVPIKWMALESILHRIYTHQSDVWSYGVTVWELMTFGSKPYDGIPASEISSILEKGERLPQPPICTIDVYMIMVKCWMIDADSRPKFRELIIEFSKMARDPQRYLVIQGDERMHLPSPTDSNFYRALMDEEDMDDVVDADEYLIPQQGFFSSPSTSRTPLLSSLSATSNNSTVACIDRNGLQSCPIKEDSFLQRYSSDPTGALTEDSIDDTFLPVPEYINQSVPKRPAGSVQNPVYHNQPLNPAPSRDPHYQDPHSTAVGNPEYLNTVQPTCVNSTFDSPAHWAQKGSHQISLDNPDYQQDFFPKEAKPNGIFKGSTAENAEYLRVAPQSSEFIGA
Protocol: as §1, §3

EGFR K757R = EGFR K757R (Homo sapiens, UniProt P00533, K757R); details: read-out: IC50 Values; Ba/F3 cells expressing EGFR K757R, 72 hours
Protocol: as §1, §2, §3

EGFR L858R T790M/C797S = EGFR L858R T790M/C797S (Homo sapiens, UniProt P00533, C797S/L858R/T790M); details: read-out: IC50 Values; Ba/F3 cells expressing EGFR L858R T790M/C797S, 72 hours
Protocol: as §1, §2, §3

EGFR Ex19del/C797S = EGFR Ex19del/C797S (Homo sapiens, UniProt P00533, C797S/DEL746-750); details: read-out: IC50 Values; Ba/F3 cells expressing EGFR Ex19del/C797S, 72 hours
Protocol: (§4) The transforming capability of the mutations was then evaluated by sustained cell viability following IL-3 deprivation. Activating EGFR mutant Ba/F3 cells were then screened against EGFR TKIs. Cell viability was determined by the Cell Titer Glo assay.
(§5) Ba/F3 cells expressing acquired atypical mutations spanning exons 18-21 were treated with inhibitors for 72 hours. […] Briefly, stable Ba/F3 cell lines were generated by retroviral transduction of Ba/F3 cell line for 12 hours. […] Three days after transduction, 2 μg/ml puromycin (Invitrogen) was added to the RPMI media. Cell lines were then grown in the absence of IL-3 for two weeks and cell viability was assessed every three days using the Cell Titer Glo assay (Progema).
as §3

EGFR G719A L861Q = EGFR G719A L861Q (Homo sapiens, UniProt P00533, G719A/L861Q); details: read-out: IC50 Values; Ba/F3 cells expressing EGFR G719A L861Q, 72 hours
Protocol: as §1, §2, §3

EGFR R776H = EGFR R776H (Homo sapiens, UniProt P00533, R776H); details: read-out: IC50 Values; Ba/F3 cells expressing EGFR R776H, 72 hours
Protocol: as §1, §2, §3

EGFR Ex19del G796S = EGFR Ex19del G796S (Homo sapiens, UniProt P00533, DEL746-750/G796S); details: read-out: IC50 Values; Ba/F3 cells expressing EGFR Ex19del G796S, 72 hours
Protocol: as §4, §5, §3

EGFR L858R/V834L = EGFR L858R/V834L (Homo sapiens, UniProt P00533, L858R/V834L); details: read-out: IC50 Values; Ba/F3 cells expressing EGFR L858R/V834L, 72 hours
Chain of EGFR L858R/V834L (P00533 25-1210 V834L/L858R): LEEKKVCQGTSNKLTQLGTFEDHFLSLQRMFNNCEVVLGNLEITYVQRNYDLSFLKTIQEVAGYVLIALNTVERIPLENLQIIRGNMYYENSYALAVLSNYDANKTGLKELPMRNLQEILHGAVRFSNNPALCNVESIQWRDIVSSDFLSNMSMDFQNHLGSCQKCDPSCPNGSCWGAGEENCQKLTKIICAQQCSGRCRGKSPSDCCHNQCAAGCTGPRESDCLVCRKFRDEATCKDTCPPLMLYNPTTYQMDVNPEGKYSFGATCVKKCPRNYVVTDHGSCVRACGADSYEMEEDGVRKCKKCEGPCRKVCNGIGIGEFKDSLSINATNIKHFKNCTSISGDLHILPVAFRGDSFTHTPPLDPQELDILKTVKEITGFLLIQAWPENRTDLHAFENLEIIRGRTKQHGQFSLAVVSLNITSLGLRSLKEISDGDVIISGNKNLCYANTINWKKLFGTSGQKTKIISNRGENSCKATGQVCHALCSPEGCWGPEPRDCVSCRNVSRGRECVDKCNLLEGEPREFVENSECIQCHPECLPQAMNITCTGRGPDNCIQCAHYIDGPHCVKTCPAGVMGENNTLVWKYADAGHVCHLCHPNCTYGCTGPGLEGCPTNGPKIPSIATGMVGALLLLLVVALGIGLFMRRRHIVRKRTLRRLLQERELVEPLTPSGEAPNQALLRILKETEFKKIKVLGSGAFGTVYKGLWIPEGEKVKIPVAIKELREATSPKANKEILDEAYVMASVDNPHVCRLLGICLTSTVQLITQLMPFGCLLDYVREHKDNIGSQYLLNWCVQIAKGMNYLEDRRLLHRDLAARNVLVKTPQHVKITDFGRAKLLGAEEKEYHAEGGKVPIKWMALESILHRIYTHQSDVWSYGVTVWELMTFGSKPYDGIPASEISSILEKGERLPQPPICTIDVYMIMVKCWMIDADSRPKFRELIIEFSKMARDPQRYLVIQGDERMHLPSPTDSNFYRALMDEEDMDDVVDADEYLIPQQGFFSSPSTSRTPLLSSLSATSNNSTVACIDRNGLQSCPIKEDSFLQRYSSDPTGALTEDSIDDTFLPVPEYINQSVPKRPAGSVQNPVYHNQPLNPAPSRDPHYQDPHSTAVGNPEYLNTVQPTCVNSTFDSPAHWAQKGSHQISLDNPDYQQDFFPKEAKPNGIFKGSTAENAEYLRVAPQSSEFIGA
Protocol: as §4, §5, §3

EGFR S811F = EGFR S811F (Homo sapiens, UniProt P00533, S811F); details: read-out: IC50 Values; Ba/F3 cells expressing EGFR S811F, 72 hours
Protocol: as §1, §2, §3

EGFR L858R/T790M/L718Q = EGFR L858R/T790M/L718Q (Homo sapiens, UniProt P00533, L718Q/L858R/T790M); details: read-out: IC50 Values; Ba/F3 cells expressing EGFR L858R/T790M/L718Q, 72 hours
Chain of EGFR L858R/T790M/L718Q (P00533 25-1210 L718Q/T790M/L858R): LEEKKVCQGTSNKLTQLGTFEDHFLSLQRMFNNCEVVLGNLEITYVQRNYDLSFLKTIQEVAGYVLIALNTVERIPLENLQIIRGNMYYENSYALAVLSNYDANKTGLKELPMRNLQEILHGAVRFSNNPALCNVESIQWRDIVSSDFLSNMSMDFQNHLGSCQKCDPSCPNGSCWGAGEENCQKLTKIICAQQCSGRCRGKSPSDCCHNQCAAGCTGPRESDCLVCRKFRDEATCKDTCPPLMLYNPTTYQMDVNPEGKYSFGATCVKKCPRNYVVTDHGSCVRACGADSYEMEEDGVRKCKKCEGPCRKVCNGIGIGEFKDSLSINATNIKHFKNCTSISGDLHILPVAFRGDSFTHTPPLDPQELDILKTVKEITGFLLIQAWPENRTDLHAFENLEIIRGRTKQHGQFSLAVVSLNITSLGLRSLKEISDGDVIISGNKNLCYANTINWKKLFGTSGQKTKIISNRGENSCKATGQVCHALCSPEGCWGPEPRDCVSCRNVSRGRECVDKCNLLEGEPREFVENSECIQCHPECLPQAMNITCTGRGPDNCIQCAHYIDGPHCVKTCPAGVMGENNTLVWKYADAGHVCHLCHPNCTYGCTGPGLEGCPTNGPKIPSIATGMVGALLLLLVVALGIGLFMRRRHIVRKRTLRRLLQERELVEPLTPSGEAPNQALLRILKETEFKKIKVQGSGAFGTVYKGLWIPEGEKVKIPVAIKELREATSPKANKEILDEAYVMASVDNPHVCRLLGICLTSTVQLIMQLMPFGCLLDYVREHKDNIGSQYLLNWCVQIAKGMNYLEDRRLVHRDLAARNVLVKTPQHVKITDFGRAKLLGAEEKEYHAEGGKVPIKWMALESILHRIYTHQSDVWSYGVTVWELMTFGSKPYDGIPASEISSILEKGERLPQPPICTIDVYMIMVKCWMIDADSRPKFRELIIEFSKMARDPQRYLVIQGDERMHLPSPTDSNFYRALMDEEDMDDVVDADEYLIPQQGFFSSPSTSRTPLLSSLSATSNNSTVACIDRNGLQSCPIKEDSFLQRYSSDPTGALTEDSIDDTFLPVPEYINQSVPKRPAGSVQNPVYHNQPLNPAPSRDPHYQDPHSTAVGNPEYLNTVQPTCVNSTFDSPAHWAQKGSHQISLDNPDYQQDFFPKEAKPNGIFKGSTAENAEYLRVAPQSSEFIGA
Protocol: as §1, §2, §3

EGFR G719S = EGFR G719S (Homo sapiens, UniProt P00533, G719S); details: read-out: IC50 Values; Ba/F3 cells expressing EGFR G719S, 72 hours
Protocol: as §1, §2, §3

## C=CC(=O)N1CC[C@@H](Oc2nc(Nc3ccc(N4CCC(N5CCN(C)CC5)CC4)cc3)c(C(N)=O)nc2CC)C1 [Naquotinib]
EGFR G724S
  IC50: 0.0581 µM
EGFR L833V
  IC50: 0.402 µM
EGFR S784F
  IC50: 0.0702 µM
EGFR L858R T790M L718V
  IC50: 0.00403 µM
EGFR V769L
  IC50: 0.219 µM
EGFR E709K
  IC50: 0.359 µM
[1]
  IC50: 0.00058 µM
EGFR L861R
  IC50: 0.0122 µM
EGFR T790M
  IC50: 0.0544 µM
EGFR Ex19del/T790M/G724S
  IC50: 0.00384 µM
EGFR K757R
  IC50: 0.122 µM
EGFR L858R T790M/C797S
  IC50: 4.35 µM
EGFR Ex19del/C797S
  IC50: 1.54 µM
EGFR G719A L861Q
  IC50: 0.00422 µM
EGFR R776H
  IC50: 0.0686 µM
EGFR Ex19del G796S
  IC50: 0.0532 µM
EGFR L858R/V834L
  IC50: 0.00719 µM
EGFR S811F
  IC50: 0.173 µM
EGFR L858R/T790M/L718Q
  IC50: 0.0918 µM
EGFR G719S
  IC50: 0.0367 µM

— patent US20260240847A1, “COMPOUNDS WITH ANTI-TUMOR ACTIVITY AGAINST CANCER CELLS BEARING TYROSINE KINASE INHIBITOR RESISTANT EGFR MUTATIONS” (BOARD OF REGENTS, THE UNIVERSITY OF TEXAS SYSTEM, priority 2019, published 2026)
